The source of these data is patent publication US9789089B2 (Gilead Sciences, Inc., priority 2013, dated 2017).

The nature of data set [1]: Test B: Cytotoxicity assay. Type of data set: cell-based. The conditions noted are these: human, uninfected MT-4 cells, same protocol as Test A, CellTiter-Glo. On the procedure: (§1) For the antiviral assay, 40 μL of 1× test concentration of 3-fold serially diluted compound in culture medium with 10% FBS was added to each well of a 384-well plate (10 concentrations) in quadruplicate. MT-4 cells were next mixed with HIV-IIIb at an m.o.i of 0.003 for 1 hour, after which time 35 μL of virus/cell mixture (2000 cells) was immediately added to each well containing 40 μL of diluted compound. The plates were then incubated at 37° C. for 5 days. After 5 days of incubation, 25 μl of 2× concentrated CellTiter-Glo™ Reagent (catalog #G7571, Promega Biosciences, Inc., Madison, Wis.) was added to each well containing MT-4 cells. Cell lysis was carried out by incubating at room temperature for 10 min and then chemiluminescence was read.
Test B:Cytotoxicity assay
Compound cytotoxicity and the corresponding CC50 values was determined using the same protocol as described in the antiviral assay (Test A) except that uninfected cells were used.
In general terms: Cellular ATP, detected with luciferase, serves as a proxy for viable cell number.

Another data set concerns HIV-IIIb. Kind of data set: Test A: Antiviral Assay in MT4 Cells. In kind it is cell-based, HIV-1. Conditions: read-out: % inhibition at 6 μM. On the procedure: Test A: Antiviral Assay in MT4 Cells
as §1

[2] abbreviates: Human immunodeficiency virus 1, MT4, 120 h, percent inhibition of virus-induced cell killing at 6 μM drug concentration, from the dose response curve, MT-4 cells infected with HIV-IIIb, 5 days.
[3] abbreviates: Human immunodeficiency virus 1, IIIB, MT4, 120 h.

Like-named read-outs stand apart in the source and are kept apart here.

The term CC50 denotes the concentration that lowers cell viability or growth by half. Low values mean greater toxicity to the cells, high ones lower toxicity to the cells. In general, inhibition refers to the percentage by which the read-out fell short of the control. In turn, `Cc1ccccc1-c1scnc1C(Cc1cc(F)cc(F)c1)NC(=O)Cn1nc(C(F)(F)F)c2c1CCCC2` (stereo not drawn) [Compound 14, N-(2-(3,5-difluorophenyl)-1-(5-(o-tolyl)thiazol-4-yl)ethyl)-2-(3-(trifluoromethyl)-4,5,6,7-tetrahydro-1H-indazol-1-yl)acetamide] returned a CC50 at 5 days in data set [1] of 11.3 µM. The inhibition at 6 µM in the data set with HIV-IIIb (setting [2]) was found to be 60%.

For the compound `COc1ccccc1Cn1ccnc1[C@H](Cc1ccccc1)NC(=O)Cc1c[nH]c2ccc(O)cc12` [Compound 3C, (S)-2-(5-hydroxy-1H-indol-3-yl)-N-(1-(1-(2-methoxybenzyl)-1H-imidazol-2-yl)-2-phenylethyl)acetamide], in data set [1], the CC50 at 5 days stood at 37.1 µM. In addition, the inhibition at 6 µM with HIV-IIIb (setting [3]) came out at 19%.

In turn, `O=C(Cc1c[nH]c2ccc(F)cc12)NC(Cc1cc(F)cc(F)c1)c1ncoc1-c1ccc(Cl)cc1` (stereo not drawn) [Compound 37, N-(1-(5-(4-chlorophenyl)oxazol-4-yl)-2-(3,5-difluorophenyl)ethyl)-2-(5-fluoro-1H-indol-3-yl)acetamide] came in with a CC50 at 5 days in data set [1] of 10.2 µM. Besides, in the data set with HIV-IIIb (setting [2]), the inhibition at 6 µM turned out to be 0%.

With `O=C(Cc1c[nH]c2ccc(F)cc12)NC(Cc1cc(F)cc(F)c1)c1cnc(-c2ccc(Cl)cc2)o1` (stereo not drawn) [Compound 19F, N-(1-(2-(4-chlorophenyl)oxazol-5-yl)-2-(3,5-difluorophenyl)ethyl)-2-(5-fluoro-1H-indol-3-yl)acetamide], it took 9.14 µM to reach half-maximal cytotoxicity in data set [1] (CC50 at 5 days). Further, the inhibition at 6 µM with HIV-IIIb (setting [2]) came out at 0%.

In the case of `O=C(Cc1c[nH]c2ccc(F)cc12)N[C@@H](Cc1cc(F)cc(F)c1)c1nnc(-c2ccccc2)o1` [Compound 17B, (S)—N-(2-(3,5-difluorophenyl)-1-(5-phenyl-1,3,4-oxadiazol-2-yl)ethyl)-2-(5-fluoro-1H-indol-3-yl)acetamide], the CC50 at 5 days in data set [1] is > 53 µM. Further, the inhibition at 6 µM in the data set on HIV-IIIb (setting [3]) was determined as 0%.

As to `Cc1nnc(C(Cc2ccccc2)NC(=O)Cn2nc(C(F)(F)F)c3c2CCCC3)n1-c1ccccc1` (stereo not drawn) [Compound 11, N-(1-(5-methyl-4-phenyl-4H-1,2,4-triazol-3-yl)-2-phenylethyl)-2-(3-(trifluoromethyl)-4,5,6,7-tetrahydro-1H-indazol-1-yl)acetamide], the CC50 at 5 days in data set [1] was > 53 µM. Further, the inhibition at 6 µM in the data set on HIV-IIIb (setting [2]) turned out to be 76%.

As for `COc1ccc2[nH]cc(CC(=O)NC(Cc3cc(F)cc(F)c3)c3ncoc3-c3ccc(Cl)cc3)c2n1` (stereo not drawn) [Compound 35, N-(1-(5-(4-chlorophenyl)oxazol-4-yl)-2-(3,5-difluorophenyl)ethyl)-2-(5-methoxy-1H-pyrrolo[3,2-b]pyridin-3-yl)acetamide], in data set [1], the CC50 at 5 days is 15.3 µM. Besides, in the data set on HIV-IIIb (setting [2]), the inhibition at 6 µM came out at 0%.

Compound `Cc1nc(-c2ccccc2)c([C@H](Cc2ccccc2)NC(=O)Cn2nc(C(F)(F)F)c3c2CCCC3)s1` [Compound 16, (S)—N-(1-(2-methyl-4-phenylthiazol-5-yl)-2-phenylethyl)-2-(3-(trifluoromethyl)-4,5,6,7-tetrahydro-1H-indazol-1-yl)acetamide] came in with a cytotoxic concentration (CC50) at 5 days in data set [1] of 51.9 µM. In addition, in the data set on HIV-IIIb (setting [2]), the inhibition at 6 µM is 0%.

As to `Cc1nnc(C(Cc2ccccc2)NC(=O)Cc2c[nH]c3ccc(O)cc23)n1-c1ccccc1` (stereo not drawn) [Compound 10G, 2-(5-hydroxy-1H-indol-3-yl)-N-(1-(5-methyl-4-phenyl-4H-1,2,4-triazol-3-yl)-2-phenylethyl)acetamide], the CC50 at 5 days in data set [1] was > 53.2 µM. In addition, the inhibition at 6 µM in the data set with HIV-IIIb (setting [2]) stood at 51%.

`Cn1cnc(C(Cc2cc(F)cc(F)c2)NC(=O)Cc2c[nH]c3ccc(C(F)(F)F)cc23)c1-c1ccc(Cl)cc1` (stereo not drawn) [Compound 32, N-(1-(5-(4-chlorophenyl)-1-methyl-1H-imidazol-4-yl)-2-(3,5-difluorophenyl)ethyl)-2-(5-(trifluoromethyl)-1H-indol-3-yl)acetamide]: the CC50 at 5 days in data set [1] came out at 11.9 µM. Also, in the data set with HIV-IIIb (setting [2]), the inhibition at 6 µM was 0%.

For `O=C(Cn1nc(C(F)(F)F)c2c1CCCC2)NC(Cc1cc(F)cc(F)c1)c1cnc(-c2ccc(Cl)cc2)o1` (stereo not drawn) [Compound 20, N-(1-(2-(4-chlorophenyl)oxazol-5-yl)-2-(3,5-difluorophenyl)ethyl)-2-(3-(trifluoromethyl)-4,5,6,7-tetrahydro-1H-indazol-1-yl)acetamide], the CC50 at 5 days in data set [1] was determined as 12.2 µM. For the same compound, in the data set on HIV-IIIb (setting [3]), the inhibition at 6 µM is 1%.

`COc1ccc2[nH]cc(CC(=O)NC(Cc3cc(F)cc(F)c3)c3cnc(-c4ccc(Cl)cc4)o3)c2n1` (stereo not drawn) [Compound 21, N-(1-(2-(4-chlorophenyl)oxazol-5-yl)-2-(3,5-difluorophenyl)ethyl)-2-(5-methoxy-1H-pyrrolo[3,2-b]pyridin-3-yl)acetamide] came in with a CC50 at 5 days in data set [1] of 25.4 µM. Further, the inhibition at 6 µM with HIV-IIIb (setting [2]) is 2%.
